Values joined by “and” are separate entries in the source; they are usually repeats but may differ in a detail not shown here. Equal values may be shown once.
target: T1, Calcium-activated potassium channel subunit beta (Sus scrofa, UniProt C0KY85)
T1 sequence (C0KY85 whole entry): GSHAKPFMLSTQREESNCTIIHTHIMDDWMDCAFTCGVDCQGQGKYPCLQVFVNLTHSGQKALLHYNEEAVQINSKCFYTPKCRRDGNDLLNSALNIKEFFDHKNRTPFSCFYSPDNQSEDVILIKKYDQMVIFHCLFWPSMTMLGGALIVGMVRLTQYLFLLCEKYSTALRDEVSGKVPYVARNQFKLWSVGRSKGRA

| Compound | Ki |
| --- | --- |
| CC(N/C(=N\C#N)Nc1ccncc1)C(C)(C)C (stereo not drawn) [NSC_4826] | 0.251 µM and 0.104 µM |
| N#Cc1cccc(C2C3=C(CCCC3=O)N=C3CCCC(=O)C32)c1 (stereo not drawn) [zm244085] | 2.77 µM and 0.671 µM |
| CC1=NS(=O)(=O)c2cc(Cl)ccc2N1 [NSC_3019] | > 10 µM |
| C[C@](O)(C(=O)Nc1ccc(C(=O)c2ccccc2)cc1)C(F)(F)F [ZD-6169] | 0.63 µM and 0.451 µM |
| CC1(C)Oc2ccc(C#N)cc2C(N2CCCC2=O)C1O (stereo not drawn) [NSC_93504] | 0.542 µM and 0.157 µM |
| CCC(C)(C)NC(=NC#N)Nc1cccnc1 [NSC_43345] | 0.0206 µM and 0.0105 µM |
| CCOc1ccccc1N=C(C[N+](=O)[O-])NC(C)C(C)(C)C (stereo not drawn) [CAS_3038059] | 0.0413 µM and 0.016 µM |
| O=C1COCC2=NC3=C([C@H](c4ccc(F)c(I)c4)C12)S(=O)(=O)CC3 (stereo partly drawn) [A-312110] | 0.0049 µM |
